Test results: US9113629B2, “4-amino-6-(4-substituted-phenyl)-picolinates and 6-amino-2-(4-substituted-phenyl)-pyrimidine-4-carboxylates and their use as herbicides” (DOW AGROSCIENCES LLC, priority 2013, dated 2015)

Test system: test plant species in Direct Seeded Rice
Test: Postemergence herbicidal activity in direct seeded rice (Table 13)
Type: in vivo
Details: BRAPP: broadleaf signalgrass, Brachiaria platyphylla; probit analysis
Excerpt: Seeds or nutlets of the desired test plant species were planted in a soil matrix prepared by mixing a loam soil (43 percent silt, 19 percent clay, and 38 percent sand, with a pH of about 8.1 and an organic matter content of about 1.5 percent) and river sand in an 80 to 20 ratio. The soil matrix was contained in plastic pots with a surface area of 139.7 cm^2. When required to ensure good germination and healthy plants, a fungicide treatment and/or other chemical or physical treatment was applied. The plants were grown for 10-17 d in a greenhouse with an approximate 14-h photoperiod which was maintained at about 29° C. during the day and 26° C. during the night. Nutrients and water were added on a regular basis and supplemental lighting was provided with overhead metal halide 1000-Watt lamps as necessary. The plants were employed for testing when they reached the second or third true leaf stage. A weighed amount, determined by the highest rate to be tested, of each test compound was placed in 25 mL glass vials and dissolved in a volume of 97:3 v/v acetone-DMSO to obtain 12× stock solutions. […] The concentrated stock solutions were added to the spray solutions so that the final acetone and DMSO concentrations were 16.2% and 0.5%, respectively. Spray solutions were diluted to the appropriate final concentrations with the addition of 10 mL of an aqueous mixture of 1.5% (v/v) Agri-dex crop oil concentrate. […] Compound requirements are based upon a 12 mL application volume at a rate of 187 L/ha. Formulated compounds were applied to the plant material with an overhead Mandel track sprayer equipped with […] nozzles calibrated to deliver 187 L/ha over an application area of 0.503 square meters (m^2) at a spray height of 18 inches (43 cm) above average plant canopy height. Control plants were sprayed in the same manner with the solvent blank. The treated plants and control plants were placed in a greenhouse as described above and watered by sub-irrigation to prevent wash-off of the test compounds. After 20-22 days, the condition of the test plants, compared with that of the untreated plants, was determined visually and scored on a scale of 0 to 100 percent where 0 corresponds to no injury and 100 corresponds to complete kill. By applying the well-accepted probit analysis as described by J. Berkson in Journal of the American Statistical Society, 48, 565 (1953) and by D. Finney in “Probit Analysis” Cambridge University Press (1952), the above data can be used to calculate GR20, GR50, GR80 and GR90 values, which are defined as growth reduction factors that correspond to the effective dose of herbicide required to kill or control 20 percent, 50 percent, 80 percent or 90 percent, respectively, of a target plant.

Structure (SMILES) | GR50 BRAPP | GR80 BRAPP
COC(=O)c1nc(-c2ccc(Br)cc2)c(Cl)c(N)c1Cl [Compound 47] | >70 g ai/ha | >70 g ai/ha

Same assay, conditions: CYPSS: sedge (Cyperus difformis, esculentus, iria); probit analysis

Structure (SMILES) | GR50 CYPSS | GR80 CYPSS
COC(=O)c1nc(-c2ccc(Br)cc2)c(Cl)c(N)c1Cl [Compound 47] | 1 g ai/ha | 3 g ai/ha

Same assay, conditions: ECHSS: barnyardgrass (Echinochloa crus-galli), junglerice (Echinochloa colonum); probit analysis

Structure (SMILES) | GR50 ECHSS | GR80 ECHSS
COC(=O)c1nc(-c2ccc(Br)cc2)c(Cl)c(N)c1Cl [Compound 47] | >70 g ai/ha | >70 g ai/ha

Same assay, conditions: LEFSS: sprangletop (Leptochloa chinensis, Leptochloa dubia); probit analysis

Structure (SMILES) | GR50 LEFSS | GR80 LEFSS
COC(=O)c1nc(-c2ccc(Br)cc2)c(Cl)c(N)c1Cl [Compound 47] | >70 g ai/ha | >70 g ai/ha

Same assay, conditions: ORYSS: Oryza sativa (crop); probit analysis

Structure (SMILES) | GR20 ORYSS
COC(=O)c1nc(-c2ccc(Br)cc2)c(Cl)c(N)c1Cl [Compound 47] | >70 g ai/ha

Same assay, conditions: SCPJU: Japanese bulrush, Scirpus juncoides; probit analysis

Structure (SMILES) | GR50 SCPJU | GR80 SCPJU
COC(=O)c1nc(-c2ccc(Br)cc2)c(Cl)c(N)c1Cl [Compound 47] | 1 g ai/ha | 1 g ai/ha

Same assay, conditions: SEBEX: hemp sesbania, Sesbania exaltata; probit analysis

Structure (SMILES) | GR50 SEBEX | GR80 SEBEX
COC(=O)c1nc(-c2ccc(Br)cc2)c(Cl)c(N)c1Cl [Compound 47] | 1 g ai/ha | 1 g ai/ha

Same assay, conditions: post-emergence, 504 h; BRAPP: broadleaf signalgrass, Brachiaria platyphylla; 35 g ai/ha; read-out: Visual Growth Reduction (%) 21 Days After Application BRAPP

Structure (SMILES) | pest or weed control at 35 g/ha
COC(=O)c1nc(-c2ccc(Br)cc2)c(Cl)c(N)c1Cl [Compound 47] | 30 to 44%

Same assay, conditions: post-emergence, 504 h; BRAPP: broadleaf signalgrass, Brachiaria platyphylla; 70 g ai/ha; read-out: Visual Growth Reduction (%) 21 Days After Application BRAPP

Structure (SMILES) | pest or weed control at 70 g/ha
COC(=O)c1nc(-c2ccc(Br)cc2)c(Cl)c(N)c1Cl [Compound 47] | 30 to 44%

Same assay, conditions: post-emergence, 504 h; CYPSS: sedge (Cyperus difformis, esculentus, iria); 35 g ai/ha; read-out: Visual Growth Reduction (%) 21 Days After Application CYPSS

Structure (SMILES) | pest or weed control at 35 g/ha
COC(=O)c1nc(-c2ccc(Br)cc2)c(Cl)c(N)c1Cl [Compound 47] | 95 to 100%

Same assay, conditions: post-emergence, 504 h; CYPSS: sedge (Cyperus difformis, esculentus, iria); 70 g ai/ha; read-out: Visual Growth Reduction (%) 21 Days After Application CYPSS

Structure (SMILES) | pest or weed control at 70 g/ha
COC(=O)c1nc(-c2ccc(Br)cc2)c(Cl)c(N)c1Cl [Compound 47] | 95 to 100%

Same assay, conditions: post-emergence, 504 h; ECHSS: barnyardgrass (Echinochloa crus-galli), junglerice (Echinochloa colonum); 35 g ai/ha; read-out: Visual Growth Reduction (%) 21 Days After Application ECHSS

Structure (SMILES) | pest or weed control at 35 g/ha
COC(=O)c1nc(-c2ccc(Br)cc2)c(Cl)c(N)c1Cl [Compound 47] | 30 to 44%

Same assay, conditions: post-emergence, 504 h; ECHSS: barnyardgrass (Echinochloa crus-galli), junglerice (Echinochloa colonum); 70 g ai/ha; read-out: Visual Growth Reduction (%) 21 Days After Application ECHSS

Structure (SMILES) | pest or weed control at 70 g/ha
COC(=O)c1nc(-c2ccc(Br)cc2)c(Cl)c(N)c1Cl [Compound 47] | 0 to 29%

Same assay, conditions: post-emergence, 504 h; LEFSS: sprangletop (Leptochloa chinensis, Leptochloa dubia); 35 g ai/ha; read-out: Visual Growth Reduction (%) 21 Days After Application LEFSS

Structure (SMILES) | pest or weed control at 35 g/ha
COC(=O)c1nc(-c2ccc(Br)cc2)c(Cl)c(N)c1Cl [Compound 47] | 75 to 84%

Same assay, conditions: post-emergence, 504 h; LEFSS: sprangletop (Leptochloa chinensis, Leptochloa dubia); 70 g ai/ha; read-out: Visual Growth Reduction (%) 21 Days After Application LEFSS

Structure (SMILES) | pest or weed control at 70 g/ha
COC(=O)c1nc(-c2ccc(Br)cc2)c(Cl)c(N)c1Cl [Compound 47] | 0 to 29%

Same assay, conditions: post-emergence, 504 h; ORYSS: Oryza sativa; 35 g ai/ha; read-out: Visual Growth Reduction (%) 21 Days After Application ORYSS

Structure (SMILES) | pest or weed control at 35 g/ha
COC(=O)c1nc(-c2ccc(Br)cc2)c(Cl)c(N)c1Cl [Compound 47] | 0 to 29%

Same assay, conditions: post-emergence, 504 h; ORYSS: Oryza sativa; 70 g ai/ha; read-out: Visual Growth Reduction (%) 21 Days After Application ORYSS

Structure (SMILES) | pest or weed control at 70 g/ha
COC(=O)c1nc(-c2ccc(Br)cc2)c(Cl)c(N)c1Cl [Compound 47] | 0 to 29%

Same assay, conditions: post-emergence, 504 h; SCPJU: Japanese bulrush, Scirpus juncoides; 35 g ai/ha; read-out: Visual Growth Reduction (%) 21 Days After Application SCPJU

Structure (SMILES) | pest or weed control at 35 g/ha
COC(=O)c1nc(-c2ccc(Br)cc2)c(Cl)c(N)c1Cl [Compound 47] | 95 to 100%

Same assay, conditions: post-emergence, 504 h; SCPJU: Japanese bulrush, Scirpus juncoides; 70 g ai/ha; read-out: Visual Growth Reduction (%) 21 Days After Application SCPJU

Structure (SMILES) | pest or weed control at 70 g/ha
COC(=O)c1nc(-c2ccc(Br)cc2)c(Cl)c(N)c1Cl [Compound 47] | 95 to 100%

Same assay, conditions: post-emergence, 504 h; SEBEX: hemp sesbania, Sesbania exaltata; 35 g ai/ha; read-out: Visual Growth Reduction (%) 21 Days After Application SEBEX

Structure (SMILES) | pest or weed control at 35 g/ha
COC(=O)c1nc(-c2ccc(Br)cc2)c(Cl)c(N)c1Cl [Compound 47] | 95 to 100%

Same assay, conditions: post-emergence, 504 h; SEBEX: hemp sesbania, Sesbania exaltata; 70 g ai/ha; read-out: Visual Growth Reduction (%) 21 Days After Application SEBEX

Structure (SMILES) | pest or weed control at 70 g/ha
COC(=O)c1nc(-c2ccc(Br)cc2)c(Cl)c(N)c1Cl [Compound 47] | 95 to 100%
